The text below walks through data of patent US20230011869A1 (Hoffmann-La Roche Inc., priority 2018, published 2023).

Where a name gives a salt, the structure may show the parent alone. Read-outs that look alike come from different tables or passages of the source.

This assay concerns Acinetobacter baumannii ATCC17978. Nature of the assay: Antimicrobial susceptibility testing: 90% growth inhibitory concentration (IC90) determination, Iso-Sensitest broth. In kind it is cell-based. The gist of the method:
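A. baumannii ATCC17978 grown in Iso-Sensitest broth across 10 compound concentrations at 35±2 °C.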

The mark [1] stands for this setting: Acinetobacter baumannii, ATCC17978, 16 h, read-out: ATCC17978 IC90, 90% growth inhibitory concentration, Acinetobacter baumannii ATCC17978, Iso-Sensitest broth, OD 600 nm over 16 h.
The mark [2] stands for this setting: 90% growth inhibitory concentration, Acinetobacter baumannii ATCC17978, Iso-Sensitest broth, OD 600 nm over 16 h, read-out: ATCC17978 IC90.

Consider `COc1ccc(-c2cnc3c(Nc4ccc(C(=O)N5CCN(C(=O)[C@@H]6C[C@@H](OC(=O)[C@@H](N)CO)CN6)CC5)c(C)c4)nccn23)c(F)c1F` [Example 563, [(3R,5S)-5-[4-[4-[[3-(2,3-difluoro-4-methoxy-phenyl)imidazo[1,2-a]pyrazin-8-yl]amino]-2-methyl-benzoyl]piperazine-1-carbonyl]pyrrolidin-3-yl] (2S)-2-amino-3-hydroxy-propanoate formate], for which the IC90 under setting [1] worked out at 135 nM. In the case of `COc1ccc(-c2cnc3c(Nc4ccc(C(=O)N5CCN(C6CCNC6)CC5)c(C)c4)nccn23)cc1F` (stereo not shown) [Example 348, [4-[[3-(3-fluoro-4-methoxyphenyl)imidazo[1,2-a]pyrazin-8-yl]amino]-2-methylphenyl]-(4-pyrrolidin-3-ylpiperazin-1-yl)methanone; hydrochloride], under setting [1], the IC90 was 660 nM. Turning to `COc1ccc(-c2cnc3c(Nc4ccc(C(=O)N5CCC(C(=O)NC(CN(C)C)C(=O)O)CC5)c(C)c4)nccn23)cc1F` (stereo not shown) [Example 278, 3-(dimethylamino)-2-[[1-[4-[[3-(3-fluoro-4-methoxyphenyl)imidazo[1,2-a]pyrazin-8-yl]amino]-2-methylbenzoyl]piperidine-4-carbonyl]amino]propanoic acid], the IC90 under setting [2] was 3800 nM. With `COc1ccc(-c2cnc3c(Nc4ccc(C(=O)N5CCN(CCO)CC5)c(C)c4)nccn23)cc1` [Example 371, [4-(2-hydroxyethyl)piperazin-1-yl]-[4-[[3-(4-methoxyphenyl)imidazo[1,2-a]pyrazin-8-yl]amino]-2-methylphenyl]methanone], under setting [2], the IC90 worked out at 1200 nM.

As to `Cc1cc(Nc2nccn3c(-c4ccc(OC(F)F)cc4)cnc23)ccc1C(=O)N1CCN(C(=O)[C@@H](N)CC(N)=O)CC1` [Example 528, (3S)-3-amino-4-[4-[4-[[3-[4-(difluoromethoxy)phenyl]imi-dazo[1,2-a]pyrazin-8-yl]amino]-2-methylbenzoyl]piperazin-1-yl]-4-oxobutanamide; hydrochloride], under setting [1], the IC90 worked out at 610 nM. Consider `Cc1cc(Nc2nccn3c(-c4ccc(OC(F)F)cc4)cnc23)ccc1C(=O)N1CC[C@@H](C(=O)N2CCNCC2)[C@H](O)C1` (racemic) [Example 438, [4-[[3-[4-(difluoromethoxy)phenyl]imi-dazo[1,2-a]pyrazin-8-yl]amino]-2-methylphenyl]-[rac-(3R,4S)-3-hydroxy-4-(piperazine-1-carbonyl)piperidin-1-yl]methanone; 2,2,2-trifluoroacetic acid], for which the IC90 under setting [2] amounted to 830 nM.

For `Cc1cc(Nc2nccn3c(-c4ccc(OC(F)F)cc4)cnc23)ccc1C(=O)N1CCN(C(=O)CNC(=O)CN)CC1` [Example 345, 2-amino-N-[2-[4-[4-[[3-[4-(difluoromethoxy)phenyl]imi-dazo[1,2-a]pyrazin-8-yl]amino]-2-methylbenzoyl]piperazin-1-yl]-2-oxoethyl]acetamide], under setting [1], the IC90 is 570 nM. As to `Cc1cc(Nc2nccn3c(-c4ccc(OC(F)F)cc4)cnc23)ccc1C(=O)N1CCN(C(=N)N)CC1` [Example 69], under setting [2], the IC90 came out at 110 nM.

On to `CNCCCNC(=O)C1CCN(C(=O)c2ccc(Nc3nccn4c(-c5ccc(OCC#N)c(F)c5F)cnc34)cc2C)CC1` [Example 242, 1-(4-((3-(4-(cyanomethoxy)-2,3-difluorophenyl)imidazo[1,2-a]pyrazin-8-yl)amino)-2-methylbenzoyl)-N-(3-(methylamino)propyl)piperidine-4-carboxamide], for which, under setting [2], the IC90 came to 170 nM. As to `COc1ccc(-c2cnc3c(Nc4ccc(C(=O)N5CCC(CN)CC5)c(C(F)(F)F)c4)nccn23)cc1F` [Example 394, [4-(aminomethyl)piperidin-1-yl]-[4-[[3-(3-fluoro-4-methoxyphenyl)imidazo[1,2-a]pyrazin-8-yl]amino]-2-(trifluoromethyl)phenyl]meth-anone; formic acid], the IC90 under setting [1] worked out at 340 nM.

Consider `Cc1cc(Nc2nccn3c(-c4ccc(OC(F)F)cc4)cnc23)ccc1C(=O)N1CCN(C(=O)[C@@H]2CCN2)CC1` [Example 176, [4-[(2S)-azetidine-2-carbonyl]piperazin-1-yl]-[4-[[3-[4-(difluoromethoxy)phenyl]imidazo[1,2-a]pyrazin-8-yl]amino]-2-methyl-phenyl]methanone hydrochloride], for which the IC90 under setting [2] was 130 nM.

For `CNCCNC(=O)C1CCN(C(=O)c2ccc(Nc3nccn4c(-c5ccc(OC(F)F)cc5)cnc34)cc2C)CC1` [Example 358, 1-[4-[[3-[4-(difluoromethoxy)phenyl]imi-dazo[1,2-a]pyrazin-8-yl]amino]-2-methylbenzoyl]-N-[2-(methylamino)ethyl]piperidine-4-carboxamide; hydrochloride], the IC90 under setting [1] turned out to be 340 nM. Consider `Cc1cc(Nc2nccn3c(-c4ccc(O[C@H](C)C#N)c(F)c4F)cnc23)ccc1C(=O)N1CCN(CCN(C)C)CC1` [Example 239, (2R)-2-[4-[8-[4-[4-[2-(dimethylamino)ethyl]piperazine-1-carbonyl]-3-methyl-anilino]imidazo[1,2-a]pyrazin-3-yl]-2,3-difluoro-phenoxy]propanenitrile formate], for which, under setting [1], the IC90 came to 790 nM. Same read-out and setting: for `Cc1cc(Nc2nccn3c(-c4ccc(OC(F)F)cc4)cnc23)ccc1C(=O)N1CCOC(CN)C1` (stereo not shown) [Example 364, [2-(aminomethyl)morpholin-4-yl]-[4-[[3-[4-(difluoromethoxy)phenyl]imi-dazo[1,2-a]pyrazin-8-yl]amino]-2-methylphenyl]methanone; hy-drochloride] the value was 530 nM. `Cc1cc(Nc2nccn3c(-c4ccc(OCc5ccccc5)c(F)c4F)cnc23)ccc1C(=O)N1CCC(CN)CC1` [Example 126, [4-(aminomethyl)-1-piperidyl]-[4-[[3-(4-benzyloxy-2,3-difluoro-phenyl)imidazo[1,2-a]pyrazin-8-yl]amino]-2-methyl-phenyl]methanone formate]: the IC90 under setting [2] amounted to 3600 nM. As for `CSc1ccc(-c2cnc3c(Nc4ccc(C(=O)N5CCC(CN)CC5)c(C)c4)nccn23)cc1F` [Example 116, [4-(aminomethyl)-1-piperidyl]-[4-[[3-(3-fluoro-4-methylsulfanyl-phenyl)imidazo[1,2-a]pyrazin-8-yl]amino]-2-methyl-phenyl]methanone formate], the IC90 under setting [2] was determined as 500 nM. As for `Cc1cc(Nc2nccn3c(-c4ccc(OCC#N)c(F)c4F)cnc23)ccc1C(=O)N1CCC(C(=O)N2CCNC(CO)C2)CC1` (stereo not shown) [Example 95, 2-[2,3-difluoro-4-[8-[4-[4-[3-(hydroxymethyl)piperazine-1-carbonyl]piperidine-1-carbonyl]-3-methyl-anilino]imidazo[1,2-a]pyrazin-3-yl]phenoxy]acetonitrile;2,2,2-trifluoroacetic acid], under setting [2], the IC90 came out at 89 nM. With `Cc1cc(Nc2nccn3c(-c4ccc(OC(F)F)cc4)cnc23)ccc1C(=O)N1CCC(C(=O)NC[C@H](O)CN)CC1` [Example 553, (R)-N-(3-amino-2-hydroxypropyl)-1-(4-((3-(4-(difluoromethoxy)phenyl)imidazo [1,2-a]pyrazin-8-yl)amino)-2-methylbenzoyl)piperidine-4-carboxamide formate], under setting [1], the IC90 was determined as 227 nM. For `Cc1cc(Nc2nccn3c(-c4ccc(OC(F)F)cc4)cnc23)ccc1C(=O)N1CCN(C(=O)NC2CCNCC2)CC1` [Example 143, 4-[4-[[3-[4-(difluoromethoxy)phenyl]imidazo[1,2-a]pyrazin-8-yl]amino]-2-methyl-benzoyl]-N-(4-piperidyl)piperazine-1-carboxamide hydrochloride], under setting [2], the IC90 worked out at 160 nM. `Cc1cc(Nc2nccn3c(-c4ccc(OCC#N)c(F)c4Cl)cnc23)ccc1C(=O)N1CCC(C(=O)N2CCN[C@@H](CO)C2)CC1` [Example 539, 2-[3-chloro-2-fluoro-4-[8-[4-[4-[(3R)-3-(hydroxymethyl)piperazine-1-carbonyl]piperidine-1-carbonyl]-3-methylanilino]imidazo[1,2-a]pyrazin-3-yl]phenoxy]acetonitrile; for-mic acid]: the IC90 under setting [2] amounted to 88 nM. Consider `Cc1cc(Nc2nccn3c(-c4ccc(OC(F)F)cc4)cnc23)ccc1C(=O)N1CCN(C(=O)NCCN2CCC2)CC1` [Example 168, N-[2-(azetidin-1-yl)ethyl]-4-[4-[[3-[4-(difluoromethoxy)phenyl]imidazo[1,2-a]pyrazin-8-yl]amino]-2-methyl-benzoyl]piperazine-1-carboxamide formate], for which the IC90 under setting [2] was 470 nM. As to `Cc1cc(Nc2nccn3c(-c4ccc(OC(F)F)cc4)cnc23)ccc1C(=O)N1CCC2(CC1)CNC2` [Example 360, 2,7-diazaspiro[3.5]nonan-7-yl-[4-[[3-[4-(difluoromethoxy)phenyl]imi-dazo[1,2-a]pyrazin-8-yl]amino]-2-methylphenyl]methanone; hy-drochloride], under setting [1], the IC90 was 420 nM. Still for that read-out and setting: for `CC[C@]1(O)CN[C@H](C(=O)N2CCN(C(=O)c3ccc(Nc4nccn5c(-c6ccc(OC)c(F)c6F)cnc45)cc3C)CC2)C1` [Example 465, [4-[[3-(2,3-difluoro-4-methoxyphenyl)imidazo[1,2-a]pyrazin-8-yl]amino]-2-methylphenyl]-[4-[(2S,4R)-4-ethyl-4-hydroxypyrrolidine-2-carbonyl]piperazin-1-yl]methanone; formic acid] the value was 170 nM. With `CNCCNC(=O)C1CCN(C(=O)c2ccc(Nc3nccn4c(-c5ccc(OC)c(F)c5)cnc34)cc2C)CC1` [Example 40, 1-(4-((3-(3-fluoro-4-methoxyphenyl)imidazo[1,2-a]pyrazin-8-yl)amino)-2-methylbenzoyl)-N-(2-(methylamino)ethyl)piperidine-4-carboxamide hydrochloride], under setting [2], the IC90 was 280 nM. Still for that read-out and setting: for `COc1ccc(-c2cnc3c(Nc4ccc(C(=O)N5CCC(N6CCCC(CO)C6)CC5)c(C)c4)nccn23)cc1F` (stereo not shown) [Example 390, [4-[[3-(3-fluoro-4-methoxyphenyl)imidazo[1,2-a]pyrazin-8-yl]amino]-2-methylphenyl]-[4-[3-(hydroxymethyl)piperidin-1-1-yl)piperidin-1-yl]methanone] the value was 320 nM.
